Assay results as given in paper PMC3566180, “Glucose 6P Binds and Activates HlyIIR to Repress Bacillus cereus Haemolysin hlyII Gene Expression” (PLoS ONE, 2013).

Legend:
[1] = biological target: T1, HlyIIR (Bacillus thuringiensis, UniProt A0A1W6WQG6); experiment: isothermal titration calorimetry (ITC200, […]°C, […] purified HlyIIR, N = […]); type: binding
T1 construct: gene CAB88_17715; hlyIIR gene amplified from the Bt407 chromosome, GST-tagged (pGEX6P1), tag removed with Precission protease

[2] = tested on: HlyIIR (Bacillus cereus Bt407); experiment: ITC; details: ITC200, 20 C, protein storage buffer (composition and pH not given), 28 uM HlyIIR in cell, 1.25 uM DNA injected (20 x 2 ul)

T1 sequence (A0A1W6WQG6 entry or part of it): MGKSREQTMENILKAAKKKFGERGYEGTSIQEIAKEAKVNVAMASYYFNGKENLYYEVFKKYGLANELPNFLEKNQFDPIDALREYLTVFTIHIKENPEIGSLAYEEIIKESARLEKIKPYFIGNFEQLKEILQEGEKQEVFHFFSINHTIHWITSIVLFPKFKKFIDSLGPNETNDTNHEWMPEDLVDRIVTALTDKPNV

Compound | Kd [1] [µM] | Kd [2] [µM]
O=P(O)(O)OC[C@H]1OC(O)[C@H](O)[C@@H](O)[C@@H]1O (some centres unmarked) [glucose 6P] | ~10.8 | 
hlyII promoter fragment (220 bp) |  | 0.11
